What was measured:
Assay in all cases: relative viability (nuclei count vs DMSO), 5 days (fraction); higher = more cells survive
[1] = compound: C1COCCN1C2=NC(=NC3=C2OC4=C3C=CC=N4)C5=CC(=CC=C5)NC(=O)C6=CN=C(C=C6)N + COc1cccc2cc(-c3nc([C@H]4CC[C@H](C(=O)O)CC4)n4ncnc(N)c34)[nH]c12 [OSI-027] (partner 0.5 µM)
Method in brief: (§1)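 For relative viability, nuclei counts in treated wells were divided by those in vehicle wells. Lung cancer cell lines had been pin-tool dosed in 1536-well plates the day after seeding and cultured for 5 days, then fixed and stained in one step (final 0.05% Triton X-100, 1% formaldehyde, 1 ug/ml Hoechst) and imaged at 4×. Doses were one drug alone or a fixed anchor-drug dose plus five library-drug doses (not always all listed) in √10 steps, and values are duplicate-plate medians.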

SGI-1776 + OSI-027 = compound: CN1CCC(CNc2ccc3ncc(-c4cccc(OC(F)(F)F)c4)n3n2)CC1 [SGI-1776] + COc1cccc2cc(-c3nc([C@H]4CC[C@H](C(=O)O)CC4)n4ncnc(N)c34)[nH]c12 [OSI-027] (partner 0.5 µM)
Method in brief: as §1

Entinostat + Alpelisib = compound: Nc1ccccc1NC(=O)c1ccc(CNC(=O)OCc2cccnc2)cc1 [Entinostat] + Cc1nc(NC(=O)N2CCC[C@H]2C(N)=O)sc1-c1ccnc(C(C)(C)C(F)(F)F)c1 [Alpelisib] (partner 2 µM)
Method in brief: as §1

[2] = compound: C1COCCN1C2=NC(=NC3=C2OC4=C3C=CC=N4)C5=CC(=CC=C5)NC(=O)C6=CN=C(C=C6)N + O=C(CCCCCCC(=O)Nc1ccccc1)NO [Vorinostat] (partner 1 µM)
Method in brief: as §1

Cell Line	relative viability ([1]; first compound 0.02 µM)	relative viability ([1]; first compound 0.06325 µM)	relative viability ([1]; first compound 0.2 µM)	relative viability ([1]; first compound 0.6325 µM)	relative viability ([1]; first compound 2 µM)	relative viability (SGI-1776 + OSI-027; first compound 0.08 µM)	relative viability (SGI-1776 + OSI-027; first compound 0.8 µM)	relative viability (SGI-1776 + OSI-027; first compound 2.53 µM)	relative viability (SGI-1776 + OSI-027; first compound 8 µM)	relative viability (Entinostat + Alpelisib; first compound 0.02 µM)	relative viability (Entinostat + Alpelisib; first compound 0.06325 µM)	relative viability (Entinostat + Alpelisib; first compound 0.2 µM)	relative viability (Entinostat + Alpelisib; first compound 0.6325 µM)	relative viability (Entinostat + Alpelisib; first compound 2 µM)	relative viability ([2]; first compound 0.02 µM)	relative viability ([2]; first compound 0.06325 µM)	relative viability ([2]; first compound 0.2 µM)	relative viability ([2]; first compound 0.6325 µM)	relative viability ([2]; first compound 2 µM)
NCI-H2170	0.796	0.76	0.651	0.786	0.596	0.741	0.671	0.666	0.67	0.77	0.747	0.771	0.521	0.345	0.93	0.997	0.643	0.729	0.518
HCC-366	0.82	1.04	0.68	0.537	0.352	0.837	0.866	1.02	0.667	0.537	0.521	0.43	0.327	0.0475	0.395	0.36	0.327	0.444	0.249
NCI-H2405	0.578	0.668	0.618	0.599	0.585	0.643	0.659	0.549	0.568	0.789	1.01	0.931	0.795	0.528	1.07	1.07	1.03	0.921	0.645
COR-L 105	0.623	0.645	0.576	0.556	0.414	0.746	0.716	0.658	0.38	0.842	0.925	0.844	0.608	0.345	0.787	0.839	0.701	0.768	0.603
201T	0.858	0.743	0.72	0.515	0.851	0.823	0.703	0.708	0.6	1.01	1.08	1.02	0.859	0.525	0.964	1.03	0.931	0.94	0.769
NCI-H2228	0.51	0.606	0.519	0.485	0.251	0.644	0.582	0.425	0.275	0.785	0.608	0.473	0.325	0.273	0.469	0.743	0.464	0.529	0.39
LCLC-103H	0.409	0.419	0.446	0.452	0.335	0.481	0.446	0.457	0.425	1.04	1.09	0.894	0.783	0.571	0.806	0.804	0.699	0.728	0.698
NCI-H2087	0.508	0.508	0.47	0.472	0.267	0.704	0.693	0.566	0.496	0.983	0.954	0.806	0.64	0.54	0.611	0.911	0.842	0.724	0.199
NCI-H358		0.832	0.702	0.601	0.443	0.747	0.856	0.663	0.304	0.807	0.962	0.965	0.551	0.284	0.727	0.723	0.688	0.644	0.332
H3255	0.626	0.56	0.464	0.465	0.552	0.65	0.643	0.651	0.555	0.637	0.594	0.548	0.363	0.289	0.814	0.744	0.788	0.781	0.698
NCI-H23	0.605		0.435	0.351	0.398	0.676	0.547	0.724	0.437	0.773	0.666	0.82	0.674	0.364	0.609	0.635	0.5	0.473	0.468
CAL-12T	0.579	0.583	0.446	0.477	0.323	0.771	0.592	0.652	0.481	1.22	1.18	1.41	1.08	0.962	0.789	1	0.769	0.601	0.431
A-427	0.407	0.416	0.469	0.399	0.394	0.543	0.481	0.479	0.357	1.01	1.1	1.05	0.943	0.845	0.831	0.904	0.855	0.838	0.798
HARA	0.52	0.609	0.381	0.391	0.283	0.681	0.638	0.64	0.412	0.819	0.861	0.658	0.582	0.484	0.463	0.597	0.51	0.431	0.361
NCI-H1793	0.253	0.301	0.251	0.177	0.233	0.258	0.253	0.31	0.223	0.584	0.79	0.583	0.621	0.388	0.61	0.846	0.571	0.59	0.574
NCI-H1623	0.459	0.434	0.447	0.414	0.405	0.459	0.416	0.502	0.427										
NCI-H2023	0.369	0.419	0.277	0.182	0.167	0.415	0.388	0.319	0.167	0.475	0.5	0.319	0.165	0.128	0.602	0.747	0.506	0.623	0.319
ABC-1	0.462	0.451	0.461	0.368	0.407	0.401	0.552	0.472	0.407	0.949	1.14	0.966	0.661	0.48	1.1	0.976	0.81	1.22	0.789
LC-2-ad	0.834	0.981	0.747	0.72	0.625	0.918	0.806	0.973	0.548	0.864	0.777	0.761	0.348	0.187	0.712	0.695	0.738	0.702	0.508
NCI-H441	0.588	0.511	0.507	0.58	0.327	0.58	0.559	0.743	0.388	0.577	0.665	0.608	0.22	0.18	0.759	0.918	0.798	0.701	0.377

Cell Line	relative viability ([1]; first compound 0.02 µM)	relative viability ([1]; first compound 0.06325 µM)	relative viability ([1]; first compound 0.2 µM)	relative viability ([1]; first compound 0.6325 µM)	relative viability ([1]; first compound 2 µM)	relative viability (SGI-1776 + OSI-027; first compound 0.08 µM)	relative viability (SGI-1776 + OSI-027; first compound 0.8 µM)	relative viability (SGI-1776 + OSI-027; first compound 2.53 µM)	relative viability (SGI-1776 + OSI-027; first compound 8 µM)	relative viability (Entinostat + Alpelisib; first compound 0.02 µM)	relative viability (Entinostat + Alpelisib; first compound 0.06325 µM)	relative viability (Entinostat + Alpelisib; first compound 0.2 µM)	relative viability (Entinostat + Alpelisib; first compound 0.6325 µM)	relative viability (Entinostat + Alpelisib; first compound 2 µM)	relative viability ([2]; first compound 0.02 µM)	relative viability ([2]; first compound 0.06325 µM)	relative viability ([2]; first compound 0.2 µM)	relative viability ([2]; first compound 0.6325 µM)	relative viability ([2]; first compound 2 µM)
NCI-H1915	0.639	0.663	0.647	0.599	0.5	0.642	0.645	0.618	0.49	1.07	1.08	1.05	0.816	0.402	0.539	0.572	0.536	0.536	0.397
NCI-H1299										1.09	1.02	1.06	0.883	0.815					
HCC-827	0.769	0.851	0.72	0.684	0.487	0.804	0.843	0.793	0.602	0.836	0.848	0.607	0.532	0.359	0.792	1.05	0.868	0.661	0.811
EMC-BAC-2	0.346	0.406	0.333	0.346	0.32	0.355	0.371	0.363	0.319	0.797	0.795	0.776	0.636	0.394	0.533	0.376	0.329	0.413	0.419
NCI-H596	0.674	0.735	0.65	0.526	0.373	0.809	0.761	0.682	0.467	0.533	0.496	0.272	0.411	0.356	0.618	0.551	0.642	0.489	0.465
NCI-H1792	0.659	0.684	0.753	0.679	0.42	0.764	0.68	0.688	0.514	0.752	0.673	0.543	0.381	0.223					
NCI-H2009	0.577	0.628	0.533	0.441	0.386	0.653	0.636	0.591	0.282	1.21	1.13	1.15	0.884	0.721	0.697	0.82	0.73	0.7	0.739
NCI-H2347	0.384	0.504	0.367	0.355	0.311	0.421	0.489	0.518	0.426	1.09	0.99	0.865	0.391	0.343	0.582	0.494	0.645	0.528	0.559
SW 900	0.759	0.492	0.43	0.467	0.357	0.56	0.689	0.564	0.399						0.455	0.573	0.488	0.425	0.392
NCI-H1563	0.824	0.766	0.719	0.659	0.706	0.749	0.8	0.674	0.614	0.908	0.883	0.826	0.807	0.636					
NCI-H1650	0.657	0.617	0.434	0.548	0.397	0.627	0.565	0.417	0.197						0.512	0.611	0.406	0.642	0.354
Calu-6										1.01	1.06	0.941	0.624	0.457					
EBC-1										0.832	0.984	0.542	0.179	0.116					
NCI-H2342	0.666	0.603	0.661	0.615	0.649	0.671	0.671	0.552	0.622						0.821	0.876	0.849	0.756	0.627
NCI-H1703										0.41	0.413	0.522	0.504	0.428					
ChaGo-K-1	0.529	0.566	0.523	0.586	0.466	0.619	0.61	0.39	0.413						0.746	0.829	0.73	0.67	0.515
IA-LM										0.706	0.741	0.98	0.566	0.481	0.855	1.03	1.08	0.44	0.401
NCI-H1648	0.285	0.229	0.264		0.279	0.233	0.273	0.249	0.238						0.313	0.306	0.42	0.281	0.294
NCI-H522	0.75	0.732	0.714	0.687	0.721	0.713	0.811	0.749	0.569						0.831	0.844	0.925	0.865	0.798
A549										0.851	0.729	0.704	0.515	0.238					

From the supplement of paper PMC10307832
